Usually IC50 stands for the concentration needed to halve the response being measured. As a reminder, the EC50 is the midpoint of the concentration-response curve.

Data on 17 compounds can be found in patent publication US11566007B2, “Ras inhibitors” (Revolution Medicines, Inc., priority 2019, dated 2023).

One experiment concerns the target NRAS Q61K (Homo sapiens (Human), UniProt P01111+P62937, Q61K). Description: Ras-Raf (BRAF RBD) disruption / FRET / MOA assay, NRAS Q61K. The format is biochemical. To be noted: NRAS Q61K; Ras-Raf disruption/FRET/MOA assay; read-out: IC50* NRAS Q61K FRET data. The procedure, abridged: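 TR-FRET disruption of nucleotide-loaded Ras binding to BRAF RBD via compound-driven ternary complex with cyclophilin A. Compound as 10-point 3-fold series from 30 μM final, 3 h at 25° C, then anti-His Eu-W1024 (10 nM) and anti-GST allophycocyanin (50 nM) for 1.5 h. IC50 from decreased FRET ratio versus DMSO.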

The test system of experiment [1] is NCI-H358 cells (K-Ras G12C). The experiment is described as follows: Potency assay: pERK in NCI-H358 cells. The format is cell-based, human. To be noted: Homo sapiens, NCI-H358; H358 KRAS G12C; read-out: pERK EC50. The procedure, abridged: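 4 h cpd, 37 °C; 10-pt 3-fold series, 10 mM DMSO top stock, duplicates. Readout pERK: AlphaLISA SureFire Ultra or In-Cell Western (IR-800CW secondary, DRAQ5 DNA stain). IC50, 4-PL fit vs log conc.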

The target in another experiment is KRAS G12D (Homo sapiens (Human), UniProt P01116+P62937, G12D). Description: Ras-Raf (BRAF RBD) disruption / FRET / MOA assay, KRAS G12D. The experiment is classed as biochemical. As to conditions: Ras-Raf disruption/FRET/MOA assay; class symbols; read-out: KRAS G12D FRET data IC50. The procedure, abridged: (§1)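 Ras:RAF disruption was scored as a fall in TR-FRET ratio relative to DMSO. Compound ranged in 3-fold steps over 10 points from 30 μM final; incubation ran 3 h at 25° C, detection antibodies a further 1.5 h. Reported as IC50.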
Chain of KRAS G12D (P01116-2 other isoform, or with tags, fused parts or gaps G12D): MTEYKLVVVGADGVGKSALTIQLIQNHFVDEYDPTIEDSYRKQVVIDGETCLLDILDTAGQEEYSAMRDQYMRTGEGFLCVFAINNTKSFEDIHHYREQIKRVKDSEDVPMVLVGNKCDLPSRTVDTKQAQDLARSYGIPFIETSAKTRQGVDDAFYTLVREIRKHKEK
Chain of KRAS G12D (P62937 whole entry): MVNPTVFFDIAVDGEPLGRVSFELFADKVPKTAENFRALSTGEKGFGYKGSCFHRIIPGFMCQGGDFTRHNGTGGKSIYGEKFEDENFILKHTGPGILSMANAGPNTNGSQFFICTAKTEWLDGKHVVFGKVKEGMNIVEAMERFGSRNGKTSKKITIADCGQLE

Another experiment has as its target KRAS G12S (Homo sapiens (Human), UniProt P01116+P62937, G12S). Description: Ras-Raf (BRAF RBD) disruption / FRET / MOA assay, KRAS G12S. The format is biochemical. As to conditions: Ras-Raf disruption/FRET/MOA assay; class symbols; read-out: KRAS G12S FRET data IC50. The procedure, abridged: as §1

SMILES strings stand for the structures. Bounds are passed on as bounds.

Chain of NRAS Q61K (P01111 whole entry Q61K): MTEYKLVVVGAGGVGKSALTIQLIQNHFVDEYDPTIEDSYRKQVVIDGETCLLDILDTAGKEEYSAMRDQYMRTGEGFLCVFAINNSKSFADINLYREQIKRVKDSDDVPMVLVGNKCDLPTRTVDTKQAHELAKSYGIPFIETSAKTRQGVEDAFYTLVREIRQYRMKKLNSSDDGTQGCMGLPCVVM
Chain of NRAS Q61K (P62937 whole entry): as the sequence (P62937 whole entry) above
Chain of KRAS G12S (P01116-2 other isoform, or with tags, fused parts or gaps G12S): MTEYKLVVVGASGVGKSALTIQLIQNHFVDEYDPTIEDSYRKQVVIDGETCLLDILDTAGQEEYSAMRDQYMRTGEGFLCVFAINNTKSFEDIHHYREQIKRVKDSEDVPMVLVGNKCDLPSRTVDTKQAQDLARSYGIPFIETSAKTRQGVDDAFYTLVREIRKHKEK
Chain of KRAS G12S (P62937 whole entry): as the sequence (P62937 whole entry) above

With `C=CC(=O)N(C)C[C@@H]1CCN(C(=O)N(C)[C@H](C(=O)N[C@H]2Cc3nc(cs3)-c3ccc4c(c3)c(c(-c3cccnc3[C@H](C)OC)n4CC)CC(C)(C)COC(=O)[C@@H]3CCCN(N3)C2=O)C(C)C)C1` (atropisomer, axis not shown) [Example A654], the results for the IC50 at NRAS Q61K, on KRAS G12D and on KRAS G12S were 10 to 100 nM, 100 to 1000 nM and 100 to 1000 nM, respectively. Also, the EC50 in experiment [1] is below 5000 nM.

As for `CCn1c(-c2cccnc2[C@H](C)OC)c2c3cc(ccc31)-c1cccc(c1)C[C@H](NC(=O)[C@@H](COC1CN(C(=O)C#CC(C)(C)N(C)CCO)C1)C(C)C)C(=O)N1CCC[C@H](N1)C(=O)OCC(C)(C)C2` (atropisomer, axis not shown) [Example A657], the IC50 at NRAS Q61K, at KRAS G12D and at KRAS G12S was above 10000 nM throughout. Further, the concentration for a half-maximal effect (EC50) in experiment [1] was below 5000 nM.

On to `CCn1c(-c2cccnc2[C@H](C)OC)c2c3cc(ccc31)-c1csc(n1)C[C@H](NC(=O)[C@@H](COC1CN(C(=O)C#CC(C)(C)N(C)C)C1)OC)C(=O)N1CCC[C@H](N1)C(=O)OCC(C)(C)C2` (atropisomer, axis not shown) [Example A660], for which the IC50 was in the range of 100 to 1000 nM on NRAS Q61K, 1000 to 10000 nM at KRAS G12D and 1000 to 10000 nM at KRAS G12S. Further, the EC50 in experiment [1] is below 5000 nM.

`C=CC(=O)N1CC[C@@]2(CCN2C(=O)N(C)[C@H](C(=O)N[C@H]2Cc3nc(cs3)-c3ccc4c(c3)c(c(-c3cccnc3[C@H](C)OC)n4CC)CC(C)(C)COC(=O)[C@@H]3CCCN(N3)C2=O)C(C)C)C1` (atropisomer, axis not shown) [Example A661]: the IC50 lay in the range of 10 to 100 nM at NRAS Q61K, 1000 to 10000 nM at KRAS G12D and 100 to 1000 nM at KRAS G12S. For the same compound, in experiment [1], the EC50 was below 5000 nM.

As for `CCn1c(-c2cccnc2[C@H](C)OC)c2c3cc(ccc31)C1=CCCN(C1)C[C@H](NC(=O)[C@@H](COC1CN(C(=O)C#CC(C)(C)N(C)C)C1)C(C)C)C(=O)N1CCC[C@H](N1)C(=O)OCC(C)(C)C2` (atropisomer, axis not shown) [Example A663, (2R)-2-(((1-(4-(dimethylamino)-4-methylpent-2-ynoyl)405yridine405-3-yl)oxy)methyl)-N-((6^3S,4S)-1^1-ethyl-1^2-(2-((S)-1-methoxyethyl)405yridine-3-yl)-10,10-dimethyl-5,7-dioxo-2^1,2^2,2^3,2^6,6^1,6^2,6^3,6^4,6^5,6^6-decahydro-1^1H-8-oxa-1(5,3)-indola-6(1,3)-pyridazina-2(5,1)-pyridinacycloundecaphane-4-yl)-3-methylbutanamide], the IC50 on NRAS Q61K, at KRAS G12D and on KRAS G12S was above 10000 nM in each case. Moreover, in experiment [1], the EC50 was below 5000 nM.

`CCn1c(-c2cccnc2[C@H](C)OC)c2c3cc(ccc31)-c1csc(n1)C[C@H](NC(=O)[C@H](C(C)C)N(C)C(=O)N1CCN(C(=O)/C=C/CN3CCOCC3)C3(CC3)C1)C(=O)N1CCC[C@H](N1)C(=O)OCC(C)(C)C2` (atropisomer, axis not shown) [Example A665]: the results for the IC50 on NRAS Q61K, at KRAS G12D and on KRAS G12S were 10 to 100 nM, 100 to 1000 nM and 10 to 100 nM, respectively. Also, the EC50 in experiment [1] is below 5000 nM.

Regarding `CCn1c(-c2cccnc2[C@H](C)OC)c2c3cc(ccc31)-c1csc(n1)C[C@H](NC(=O)[C@H](C(C)C)N(C)C(=O)N1CCC3(CC1)CN(C(=O)/C=C/CN1CCOCC1)C3)C(=O)N1CCC[C@H](N1)C(=O)OCC(C)(C)C2` (atropisomer, axis not shown) [Example A669], the IC50 was in the range of 10 to 100 nM at NRAS Q61K, 100 to 1000 nM at KRAS G12D and 100 to 1000 nM at KRAS G12S. Besides, in experiment [1], the half-maximal effective concentration (EC50) was below 5000 nM.

Turning to `CCn1c(-c2cccnc2[C@H](C)OC)c2c3cc(ccc31)-c1csc(n1)C[C@H](NC(=O)[C@H](C(C)C)N(C)C(=O)N1CCC3(CC1)CN(C(=O)/C=C/CN1CCCCC1)C3)C(=O)N1CCC[C@H](N1)C(=O)OCC(C)(C)C2` (atropisomer, axis not shown) [Example A670], the IC50 fell in the range of 100 to 1000 nM on NRAS Q61K, 1000 to 10000 nM on KRAS G12D and 100 to 1000 nM at KRAS G12S. For the same compound, in experiment [1], the EC50 was below 5000 nM.

As to `C/C=C/C(=O)N1CC2(CCN(C(=O)N(C)[C@H](C(=O)N[C@H]3Cc4nc(cs4)-c4ccc5c(c4)c(c(-c4cccnc4[C@H](C)OC)n5CC)CC(C)(C)COC(=O)[C@@H]4CCCN(N4)C3=O)C(C)C)CC2)C1` (atropisomer, axis not shown) [Example A671], the IC50 at NRAS Q61K fell in the range of 10 to 100 nM; at KRAS G12D, 100 to 1000 nM; on KRAS G12S, 100 to 1000 nM. Also, in experiment [1], the EC50 is below 5000 nM.

For `CCn1c(-c2cccnc2[C@H](C)OC)c2c3cc(ccc31)-c1nc(co1)C[C@H](NC(=O)[C@@H](COC1CN(C(=O)C#CC(C)(C)N(C)C)C1)C(C)C)C(=O)N1CCC[C@H](N1)C(=O)OCC(C)(C)C2` (atropisomer, axis not shown) [Example A675, (2R)-2-(((1-(4-(dimethylamino)-4-methylpent-2-ynoyl)azetidin-3-yl)oxy)methyl)-N-((6^3S,4S,Z)-1^1-ethyl-1^2-(2-((S)-1-methoxyethyl)pyridin-3-yl)-10,10-dimethyl-5,7-dioxo-6^1,6^2,6^3,6^4,6^5,6^6-hexahydro-1^1H-8-oxa-2(2,4)-oxazola-1(5,3)-indola-6(1,3)-pyridazinacycloundecaphane-4-yl)-3-methylbutanamide], the IC50 on NRAS Q61K, at KRAS G12D and at KRAS G12S was above 10000 nM in each case. Moreover, the EC50 in experiment [1] was below 5000 nM.

As to `C=CC(=O)N1CCN(C(=O)N(C)[C@H](C(=O)N[C@H]2Cc3nc(cs3)-c3ccc4c(c3)c(c(-c3cccnc3[C@H](C)OC)n4CC(F)(F)F)CC(C)(C)COC(=O)[C@@H]3CCCN(N3)C2=O)C(C)C)CC12CC2` (atropisomer, axis not shown) [Example A679], the half-maximal inhibitory concentration (IC50) at NRAS Q61K lay in the range of 10 to 100 nM; at KRAS G12D, 100 to 1000 nM; on KRAS G12S it was 10 to 100 nM. For the same compound, in experiment [1], the EC50 was below 5000 nM.

For the compound `C=C(OC)C(=O)N1CC2(CCN(C(=O)N(C)[C@H](C(=O)N[C@H]3Cc4nc(cs4)-c4ccc5c(c4)c(c(-c4cccnc4[C@H](C)OC)n5CC)CC(C)(C)COC(=O)[C@@H]4CCCN(N4)C3=O)C(C)C)CC2)C1` (atropisomer, axis not shown) [Example A681], the IC50 lay in the range of 10 to 100 nM on NRAS Q61K, 100 to 1000 nM on KRAS G12D and 100 to 1000 nM at KRAS G12S. Moreover, the concentration giving a half-maximal response (EC50) in experiment [1] is below 5000 nM.

Take `C=C(F)C(=O)N1CC2(CCN(C(=O)N(C)[C@H](C(=O)N[C@H]3Cc4nc(cs4)-c4ccc5c(c4)c(c(-c4cccnc4[C@H](C)OC)n5CC)CC(C)(C)COC(=O)[C@@H]4CCCN(N4)C3=O)C(C)C)CC2)C1` (atropisomer, axis not shown) [Example A682]: the IC50 fell in the range of 10 to 100 nM at NRAS Q61K, 100 to 1000 nM at KRAS G12D and 100 to 1000 nM on KRAS G12S. Moreover, the EC50 in experiment [1] was below 5000 nM.

Turning to `C=CC(=O)N1CC2(CCN2C(=O)N(C)[C@H](C(=O)N[C@H]2Cc3cccc(c3)-c3ccc4c(c3)c(c(-c3cccnc3[C@H](C)OC)n4CC)CC(C)(C)COC(=O)[C@@H]3CCCN(N3)C2=O)C(C)C)C1` (atropisomer, axis not shown) [Example A684], the results for the IC50 on NRAS Q61K, at KRAS G12D and on KRAS G12S were 100 to 1000 nM, 1000 to 10000 nM and 100 to 1000 nM, respectively. In addition, the EC50 in experiment [1] was below 5000 nM.

Regarding `C=CC(=O)N1C[C@H]2CN(C(=O)N(C)[C@H](C(=O)N[C@H]3Cc4nc(cs4)-c4ccc5c(c4)c(c(-c4cccnc4[C@H](C)OC)n5CC)CC(C)(C)COC(=O)[C@@H]4CCCN(N4)C3=O)C(C)C)[C@H]2C1` (atropisomer, axis not shown) [Example A686], the IC50 lay in the range of 10 to 100 nM on NRAS Q61K, 1000 to 10000 nM at KRAS G12D and 100 to 1000 nM at KRAS G12S. Also, the EC50 in experiment [1] was below 5000 nM.

Regarding `C=CC(=O)N1CC[C@H]2[C@@H](C1)CN2C(=O)N(C)[C@H](C(=O)N[C@H]1Cc2nc(cs2)-c2ccc3c(c2)c(c(-c2cccnc2[C@H](C)OC)n3CC)CC(C)(C)COC(=O)[C@@H]2CCCN(N2)C1=O)C(C)C` (atropisomer, axis not shown) [Example A687], the IC50 on NRAS Q61K fell in the range of 10 to 100 nM; at KRAS G12D, 1000 to 10000 nM; on KRAS G12S it was 100 to 1000 nM. In addition, the EC50 in experiment [1] was below 5000 nM.

Regarding `CCn1c(-c2cccnc2[C@H](C)OC)c2c3cc(ccc31)-c1csc(n1)C[C@H](NC(=O)C[C@@H]1COC3(CN(C(=O)C#CC(C)(C)N(C)C)C3)O1)C(=O)N1CCC[C@H](N1)C(=O)OCC(C)(C)C2` (atropisomer, axis not shown) [Example A691], the IC50 at NRAS Q61K, at KRAS G12D and at KRAS G12S was 1000 to 10000 nM throughout. For the same compound, in experiment [1], the EC50 is below 5000 nM.
